Consider nine compounds from PubChem BioAssay AID1919008 (Molecular Pharmacology Branch, DTP, NCI, 2023).

Several values for one entry are separate records, joined by “and”; a condition that tells them apart may be missing. Equal values may be shown once. Some results are limits rather than exact numbers.

The viability, T/C is the result in the treated group divided by that in the control group, in per cent. One may read the IC50 as the point on the concentration scale where inhibition reaches its midpoint.

This assay deals with DMS-114 complex spheroids with HUVEC/MSC, growth % test/control. Nature of the assay: Anticancer human tumor DMS-114 cell line growth inhibition [AhR].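 On all read-outs here: spheroids exposed to agents for 7 days before readout.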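 On viability, T/C: 100% = DMSO vehicle control wells.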 The settings on record: for viability, T/C: stronger effect = lower value; for IC50: curve of compound. The source says: Multicellular complex tumor spheroid response to aryl hydrocarbon receptor antagonists in combination with a variety of drugs and investigational agents in selected tumor cell lines
The current study was undertaken to assess response to aryl hydrocarbon receptor antagonists in combination with standard-of-care drugs and investigational agents in solid tumor complex spheroid models. Complex spheroids include a stromal component modeled by human endothelial cells (HUVEC) and fibroblasts modeled by human mesenchymal stem cells (MSCs). The concentration ranges selected for each drug and investigational agent were based upon clinically achievable concentrations if the clinical Cmax of the agent was known.
Compounds. The drugs and investigational agents: BAY 2416964 (NSC825713), GNF351 (NSC835774), CH-223191 (NSC835775), CPI-455 (NSC825282), aza-TdCyd (NSC777586), decitabine (NSC127716), belinostat (NSC758774), entinostat (NSC756642), pevonedistat (NSC761192), tazemetostat (NSC777109), talazoparib (NSC765396), olaparib (NSC753686), selinexor (NSC780203), nedisertib (M3814, NSC802822), bortezomib (NSC756655), venetoclax (NSC766270), doxorubicin (NSC123127), elimusertib (BAY189344, NSC800525), ceralasertib (AZD6738, NSC777638), TAK-243 (NSC785004), alisertib (NSC759677), etoposide (NSC141540), topotecan (NSC609699), eribulin (NSC707389), gemcitabine (NSC613327), carboplatin (NSC241240), cisplatin (NSC119875), and SN-38 (NSC673596) were obtained from the National Cancer Institute (NCI) Developmental Therapeutics Program Chemical Repository (32). The FDA-approved anticancer drug set is available from the Developmental Therapeutics Program at https://dtp.cancer.gov/organization/dscb/obtaining/available plates.htm. […] The stock solutions were prepared in dimethyl sulfoxide (DMSO, Sigma-Aldrich, St. Louis, MO, cat. D2650), except for the platinum compounds which were prepared in saline (Quality Biological, Gaithersburg, MD, cat. 114-055-101), at 800-fold the tested concentration and stored at -70 degrees C prior to their use. All drugs and investigational agents were tested over a range starting from a high concentration at or near the clinical Cmax and decreasing in half-log increments. If the clinical Cmax for an agent had not been determined, the highest concentration tested was 10 microM (Table 1).
Cell Culture. All cells were maintained in an incubator at 37 degrees C and 5% CO2 with 95% humidity. The PDC lines were cultured according to standard operating procedures established by the NCI PDMR (https://pdmr.cancer.gov). Briefly, all PDCs were thawed and cultured in Matrigel-coated flasks prepared with a working solution of 1X Ham's F-12 nutrient mix, without supplementation (Invitrogen, Waltham, MA, cat. 11765054), 100 U/mL penicillin-streptomycin (Invitrogen, cat. 15140122), and 2.5% Matrigel (Corning Inc., Corning, NY, cat. 354248) for the first three passages. All PDCs were cultured in complete DMEM/F-12 media containing advanced DMEM/F-12 (Invitrogen, cat. 12634028), 4.9% defined fetal bovine serum, heat inactivated (HyClone Laboratories Inc., Logan, UT, cat. SH30070.03HI), 389 ng/mL hydrocortisone (Sigma-Aldrich, cat. H4001), 9.7 ng/mL human EGF recombinant protein (Invitrogen, cat. PHG0313), 23.4 microg/mL adenine (Sigma-Aldrich, cat. A2786), 97.3 U/mL penicillin-streptomycin (Invitrogen, cat. 15140122), 1.9 mM L-glutamine (Invitrogen, cat. 25030081), and 9.7 microM Y-27632 dihydrochloride (Tocris Bioscience, Bristol, United Kingdom, cat. 1254). The PDCs were cultured in complete DMEM/F12 media without 10 microM Y-27632 dihydrochloride for at least two passages prior to the screen. The established cell lines NCI-H1341 and […] were cultured in DMEM/F-12, HEPES (Invitrogen, cat. 11330032), 5% defined fetal bovine serum (HyClone Laboratories Inc., cat. SH30070.03), ITS premix universal culture supplement [insulin (5 microg/mL), transferrin (5 microg/mL), and selenious acid (5 ng/mL)] […]

Consider `Cn1ncnc1C1c2n[nH]c(=O)c3cc(F)cc(c23)NC1c1ccc(F)cc1` (stereo not drawn), for which the IC50 is above 100 nM. The viability, T/C (compound 0.000316 µM) is 100% and 96.9% and 109%. In addition, the viability, T/C (compound 0.001 µM) was 98.4% and 102% and 98%. The viability, T/C (compound 0.00316 µM) is 95.9% and 96.9% and 99.1%. Moreover, the viability, T/C (compound 0.01 µM) is 96% and 100% and 99.3%. Further, the viability, T/C (compound 0.0316 µM) was 93.1% and 107% and 99.9%. Moreover, under “compound 0.1 µM”, the viability, T/C was 76.3% and 101% and 86.2%.

Consider `NS(=O)(=O)OCC1CC(n2ccc3c(NC4CCc5ccccc54)ncnc32)CC1O` (stereo not drawn), for which the IC50 is 42.3 nM and 215 nM and 48 nM. For the same compound, where the note is “compound 0.0316 µM”, the viability, T/C is 56% and 124% and 59.6%. For the same compound, the viability, T/C (compound 0.1 µM) was 31.8% and 84.4% and 33.5%. For the same compound, the viability, T/C (compound 0.316 µM) is 17.6% and 31.9% and 17.2%. The viability, T/C (compound 1 µM) was 6.55% and 22.7% and 10.3%. In addition, the viability, T/C (compound 3.16 µM) was 4.52% and 19.9% and 8.23%. For the same compound, the viability, T/C (compound 10 µM) is 4.43% and 14.3% and 5.53%.

For `Nc1ccccc1NC(=O)c1ccc(CNC(=O)OCc2cccnc2)cc1`, the IC50 is 627 nM and 2520 nM and 665 nM. Besides, the viability, T/C (compound 0.0316 µM) was 89.7% and 96.8% and 108%. Further, for the setting “compound 0.1 µM”, the viability, T/C was 85% and 94.1% and 92.8%. Also, the viability, T/C (compound 0.316 µM) was 68% and 90.9% and 67.3%. Further, under “compound 1 µM”, the viability, T/C was 37.8% and 74.1% and 40.4%. Moreover, the viability, T/C (compound 3.16 µM) is 15.6% and 44% and 22.9%. In addition, under “compound 10 µM”, the viability, T/C is 8.33% and 24.4% and 14.5%.

Consider `Nc1ccn(C2OC(CO)C(O)C2(F)F)c(=O)n1` (stereo not drawn), for which the IC50 is below 31.6 nM. In addition, under “compound 0.0316 µM”, the viability, T/C was 9.8% and 13.2% and 25.1%. Besides, where the note is “compound 0.1 µM”, the viability, T/C was 8.85% and 12.6% and 26.8%. Besides, for the setting “compound 0.316 µM”, the viability, T/C was 9.58% and 12.2% and 25.9%. Further, the viability, T/C (compound 1 µM) was 10.4% and 11% and 25.1%. In addition, the viability, T/C (compound 3.16 µM) is 9.16% and 11.7% and 24.5%. For the setting “compound 10 µM”, the viability, T/C was 9.05% and 10.8% and 25.4%.

Consider `Nc1ncn(C2CC(O)C(CO)O2)c(=O)n1` (stereo not drawn), for which the 50% inhibitory concentration (IC50) is above 1000 nM. Besides, under “compound 0.00316 µM”, the viability, T/C is 91.9% and 109% and 106%. Besides, the viability, T/C (compound 0.01 µM) was 97.6% and 110% and 95%. Where the note is “compound 0.0316 µM”, the viability, T/C is 105% and 108% and 88.3%. Besides, the viability, T/C (compound 0.1 µM) was 83.8% and 112% and 109%. In addition, the viability, T/C (compound 0.316 µM) is 66.8% and 110% and 78%. Besides, the viability, T/C (compound 1 µM) was 53.1% and 110% and 66.1%.

As for `Nc1ncn(C2CC(O)C(CO)S2)c(=O)n1` (stereo not drawn), the IC50 is 222 nM and > 300 nM. The viability, T/C (compound 0.000949 µM) is 97.3% and 101% and 110%. Also, where the note is “compound 0.003 µM”, the viability, T/C was 108% and 102% and 116%. For the same compound, the viability, T/C (compound 0.00949 µM) was 112% and 104% and 102%. The viability, T/C (compound 0.03 µM) is 88.5% and 101% and 88.9%. For the setting “compound 0.0949 µM”, the viability, T/C was 60.1% and 107% and 84.8%. For the same compound, the viability, T/C (compound 0.3 µM) is 46.1% and 86.9% and 52.9%.

Take `O=C(C=Cc1cccc(S(=O)(=O)Nc2ccccc2)c1)NO`: the IC50 was 424 nM and 1730 nM and 436 nM. For the same compound, under “compound 0.0316 µM”, the viability, T/C was 88.4% and 108% and 83%. For the same compound, the viability, T/C (compound 0.1 µM) is 85.7% and 103% and 74.2%. For the same compound, the viability, T/C (compound 0.316 µM) is 54.9% and 91% and 60%. For the setting “compound 1 µM”, the viability, T/C was 29.6% and 69.9% and 26.9%. The viability, T/C (compound 3.16 µM) is 13.4% and 26.4% and 15.6%. Also, the viability, T/C (compound 10 µM) was 9.67% and 29.7% and 13.6%.

With `O=C(C=Cn1cnc(-c2cc(C(F)(F)F)cc(C(F)(F)F)c2)n1)NNc1cnccn1`, the IC50 was 189 nM and 901 nM and 221 nM. The viability, T/C (compound 0.00949 µM) was 106% and 109% and 113%. For the same compound, the viability, T/C (compound 0.03 µM) is 96.6% and 110% and 97.4%. Further, for the setting “compound 0.0949 µM”, the viability, T/C was 64.5% and 108% and 80.5%. Moreover, the viability, T/C (compound 0.3 µM) was 40.7% and 87.3% and 37.6%. Moreover, the viability, T/C (compound 0.949 µM) is 15% and 48.7% and 18.4%. For the same compound, the viability, T/C (compound 3 µM) was 5.6% and 17.9% and 7.48%.

In the case of `O=C(c1cc(Cc2n[nH]c(=O)c3ccccc23)ccc1F)N1CCN(C(=O)C2CC2)CC1`, the IC50 was above 10000 nM. For the same compound, the viability, T/C (compound 0.0316 µM) was 106% and 111% and 105%. Also, the viability, T/C (compound 0.1 µM) was 110% and 111% and 95.4%. Also, where the note is “compound 0.316 µM”, the viability, T/C was 97.3% and 106% and 87.7%. Besides, under “compound 1 µM”, the viability, T/C is 98% and 103% and 96.3%. Moreover, the viability, T/C (compound 3.16 µM) was 82.4% and 108% and 76.7%. The viability, T/C (compound 10 µM) is 50.8% and 105% and 60.7%.
